Reference: US4346076A, “Bis-tetrazoylmethyl substituted cephalosporin antibiotics” (Eli Lilly and Company, priority 1980, dated 1982)
In brackets after ≈: the same amount, converted by molar mass. Read-outs that look alike come from different tables or passages of the source.

Legend:
[1] = test system: Bordetella bronchoseptica; assay: in vitro antibacterial activity, agar dilution; assay type: cell-based; conditions: strain 16, read-out: Minimum Inhibitory Concentration
Excerpt: (§1) The bis-tetrazol-thiomethyl substituted cephalosporins of this invention are broad spectrum antibiotics which inhibit the growth of both gram positive and gram negative microorganisms which are pathogenic to man and animals. […] The following Table 2 lists the minimum inhibitory concentrations of representative compounds of the invention.
(§2) The data in TABLE 2 were obtained in the agar dilution test method using Mueller-Hinton agar containing two percent Supplement C (Difco). Serial two-fold dilutions were run with the highest concentration on test at 128 mcg/ml.

[2] = test system: Citrobacter freundii; assay: in vitro antibacterial activity, agar dilution; assay type: cell-based; conditions: strain CF17, read-out: Minimum Inhibitory Concentration
Excerpt: as §1, §2

[3] = test system: Enterobacter aerogenes; assay: in vitro antibacterial activity, agar dilution; assay type: cell-based; conditions: Klebsiella aerogenes, read-out: Minimum Inhibitory Concentration
Excerpt: as §1, §2

[4] = test system: Enterobacter cloacae; assay: in vitro antibacterial activity, agar dilution; assay type: cell-based
Excerpt: as §1, §2

[5] = test system: Escherichia coli; assay: in vitro antibacterial activity, agar dilution; assay type: cell-based
Excerpt: as §1, §2

[6] = test system: Haemophilus influenzae; assay: in vitro antibacterial activity, agar dilution; assay type: cell-based; conditions: for MIC: Haemophilus influenzae, read-out: Minimum Inhibitory Concentration
Excerpt: as §1, §2

[7] = test system: Klebsiella sp.; assay: in vitro antibacterial activity, agar dilution; assay type: cell-based
Excerpt: as §1, §2

[8] = test system: Proteus inconstans; assay: in vitro antibacterial activity, agar dilution; assay type: cell-based; conditions: Providencia alcalifaciens, read-out: Minimum Inhibitory Concentration
Excerpt: as §1, §2

[9] = test system: Proteus morganii; assay: in vitro antibacterial activity, agar dilution; assay type: cell-based; conditions: Morganella morganii; strain PR15; read-out: Minimum Inhibitory Concentration
Excerpt: as §1, §2

[10] = test system: Proteus rettgeri; assay: in vitro antibacterial activity, agar dilution; assay type: cell-based; conditions: for MIC: Providencia rettgeri, read-out: Minimum Inhibitory Concentration
Excerpt: as §1, §2

[11] = test system: Pseudomonas aeruginosa; assay: in vitro antibacterial activity, agar dilution; assay type: cell-based
Excerpt: as §1, §2

[12] = test system: Salmonella sp.; assay: in vitro antibacterial activity, agar dilution; assay type: cell-based
Excerpt: as §1, §2

[13] = test system: Serratia marcescens; assay: in vitro antibacterial activity, agar dilution; assay type: cell-based
Excerpt: as §1, §2

[14] = test system: Shigella sonnei; assay: in vitro antibacterial activity, agar dilution; assay type: cell-based; conditions: strain N9, read-out: Minimum Inhibitory Concentration
Excerpt: as §1, §2

[15] = test system: Staphylococcus aureus; assay: in vitro antibacterial activity, agar dilution; assay type: cell-based
Excerpt: as §1, §2

[16] = test system: Staphylococcus epidermidis; assay: in vitro antibacterial activity, agar dilution; assay type: cell-based
Excerpt: as §1, §2

[17] = test system: Streptococcus Group A; assay: in vitro antibacterial activity, agar dilution; assay type: cell-based; conditions: strain C203; read-out: Minimum Inhibitory Concentration
Excerpt: as §1, §2

[18] = test system: Streptococcus Group D; assay: in vitro antibacterial activity, agar dilution; assay type: cell-based; conditions: read-out: Minimum Inhibitory Concentration
Excerpt: as §1, §2

[19] = test system: Streptococcus pneumoniae; assay: in vitro antibacterial activity, agar dilution; assay type: cell-based; conditions: strain PARK, read-out: Minimum Inhibitory Concentration
Excerpt: as §1, §2

[20] = test system: Escherichia coli (EC14); assay: in vivo activity in infected mice; conditions: sc, doses at 1 and 5 hours post infection
Experimental: (§3) Compound E (TABLE 2), a preferred compound of the invention, was administered to mice infected with various pathogens to determine the compound's effective dose (ED50). Listed below in TABLE 3 are the ED50 values determined with the indicated infectious organism. | ^1 Subcutaneous doses at 1 and 5 hours post infection

[21] = test system: Proteus vulgaris (PV2S); assay: in vivo activity in infected mice; conditions: sc, doses at 1 and 5 hours post infection
Experimental: as §3

[22] = test system: Serratia marcescens (SE3); assay: in vivo activity in infected mice; conditions: sc, doses at 1 and 5 hours post infection
Experimental: as §3

[23] = test system: Staphylococcus aureus (3055); assay: in vivo activity in infected mice; conditions: sc, doses at 1 and 5 hours post infection
Experimental: as §3

[24] = test system: Streptococcus pyogenes (C203); assay: in vivo activity in infected mice; conditions: sc, doses at 1 and 5 hours post infection
Experimental: as §3

[25] = test system: ampicillin-resistant Haemophilus influenzae; assay: treatment of ampicillin-resistant Haemophilus influenzae meningitis in infant rats; assay type: in vivo
[26] = levels in cerebro-spinal fluid of rats; assay type: in vivo; conditions: 20 mg/kg s.c.
[27] = strain 265A, read-out: Minimum Inhibitory Concentration
[28] = strain EB5, read-out: Minimum Inhibitory Concentration
[29] = strain EC14, read-out: Minimum Inhibitory Concentration
[30] = strain N10, read-out: Minimum Inhibitory Concentration
[31] = strain KAE, read-out: Minimum Inhibitory Concentration
[32] = strain X26, read-out: Minimum Inhibitory Concentration
[33] = strain Ps18, read-out: Minimum Inhibitory Concentration
[34] = strain X239, read-out: Minimum Inhibitory Concentration
[35] = strain X528, read-out: Minimum Inhibitory Concentration
[36] = strain 1335, read-out: Minimum Inhibitory Concentration
[37] = strain X514, read-out: Minimum Inhibitory Concentration
[38] = strain SE3, read-out: Minimum Inhibitory Concentration
[39] = strain X93, read-out: Minimum Inhibitory Concentration
[40] = read-out: Minimum Inhibitory Concentration
[41] = strain V41, read-out: Minimum Inhibitory Concentration
[42] = strain X1.1, read-out: Minimum Inhibitory Concentration
[43] = strain X400, read-out: Minimum Inhibitory Concentration
[44] = strain EPI1, read-out: Minimum Inhibitory Concentration
[45] = strain EPI2, read-out: Minimum Inhibitory Concentration

CCN1CCN(C(=O)N[C@@H](C(=O)N[C@@H]2C(=O)N3C(C(=O)O)=C(CSc4nnnn4Cc4nnn[nH]4)CS[C@H]23)c2ccc(O)cc2)C(=O)C1=O [D, 7-[α-(4-Ethylpiperazin-2,3-dione-1-ylcarbonylamino)-α-(4-hydroxyphenyl)acetamido]-3-[1-(1H-tetrazole-5-ylmethyl)-1H-tetrazole-5-ylthiomethyl]-3-cephem-4-carboxylic acid] showed an MIC [1] of 32 mg/L (≈ 44.8 µM), an MIC [2] of 32 mg/L (≈ 44.8 µM) and an MIC ([3]; strain C32) of 2 mg/L (≈ 2.8 µM). It also gave an MIC ([3]; strain EB17) of 0.5 mg/L (≈ 0.701 µM), an MIC ([3]; strain X68) of 0.25 mg/L (≈ 0.35 µM) and an MIC [4, 27] of 128 mg/L (≈ 179 µM). It also gave an MIC [4, 28] of 2 mg/L (≈ 2.8 µM), an MIC [5, 29] of 0.125 mg/L (≈ 0.175 µM) and an MIC [5, 30] of 2 mg/L (≈ 2.8 µM). For the same compound, the MIC ([5]; strain TEM, read-out: Minimum Inhibitory Concentration) was 16 mg/L (≈ 22.4 µM), the MIC ([6]; strain 251, resistant strain) was 0.015 mg/L (≈ 0.021 µM) and the MIC ([6]; strain Brun, sensitive strain) was 0.015 mg/L (≈ 0.021 µM). The MIC [7, 31] was > 128 mg/L, the MIC [7, 32] was 1 mg/L (≈ 1.4 µM) and the MIC ([8]; strain PR33) was 2 mg/L (≈ 2.8 µM). It also gave an MIC [9] of 1 mg/L (≈ 1.4 µM), an MIC ([10]; strain C24) of 8 mg/L (≈ 11.2 µM) and an MIC ([10]; strain PR7) of 4 mg/L (≈ 5.6 µM). It also gave an MIC [11, 33] of 8 mg/L (≈ 11.2 µM), an MIC [11, 34] of 4 mg/L (≈ 5.6 µM) and an MIC [11, 35] of 8 mg/L (≈ 11.2 µM). For the same compound, the MIC [12, 36] was 4 mg/L (≈ 5.6 µM), the MIC [12, 37] was 2 mg/L (≈ 2.8 µM) and the MIC [13, 38] was 4 mg/L (≈ 5.6 µM). The MIC [13, 39] was 1 mg/L (≈ 1.4 µM), the MIC [14] was 0.25 mg/L (≈ 0.35 µM) and the MIC [15, 40] was 32 mg/L (≈ 44.8 µM). The MIC [15, 41] was 16 mg/L (≈ 22.4 µM), the MIC [15, 42] was 4 mg/L (≈ 5.6 µM) and the MIC [15, 43] was > 128 mg/L. The MIC [16, 44] was 8 mg/L (≈ 11.2 µM), the MIC [16, 45] was 32 mg/L (≈ 44.8 µM) and the MIC [17] was 0.5 mg/L (≈ 0.701 µM). For the same compound, the MIC ([18]; strain 9960) was 64 mg/L (≈ 89.7 µM), the MIC ([18]; strain X66) was 128 mg/L (≈ 179 µM) and the MIC [19] was 0.25 mg/L (≈ 0.35 µM).

For CO/N=C(\C(=O)N[C@@H]1C(=O)N2C(C(=O)O)=C(CSc3nnnn3Cc3nnn[nH]3)CS[C@H]12)c1csc(N)n1 [Compound E, syn 7β-[α-methoximino-α-(2-amino-1,3-thiazol-4-yl)-acetamido]-3-[1-(1H-tetrazol-5-ylmethyl)-1H-tetrazol-5-ylthiomethyl]-3-cephem-4-carboxylic acid], the MIC [1] was 32 mg/L (≈ 55.2 µM), the MIC [2] was 32 mg/L (≈ 55.2 µM) and the MIC ([3]; strain C32) was 0.25 mg/L (≈ 0.431 µM). For the same compound, the MIC ([3]; strain EB17) was 0.25 mg/L (≈ 0.431 µM), the MIC ([3]; strain X68) was 0.06 mg/L (≈ 0.104 µM) and the MIC [4, 27] was 64 mg/L (≈ 110 µM). The MIC [4, 28] was 2 mg/L (≈ 3.45 µM), the MIC [5, 40] was 0.125 mg/L (≈ 0.216 µM) and the MIC [5, 29] was 0.06 mg/L (≈ 0.104 µM). The MIC [5, 30] was 0.25 mg/L (≈ 0.431 µM), the MIC [6] was 0.125 mg/L (≈ 0.216 µM) and the “Minimum Inhibitory Concentration” value ([6]; strain 251, resistant strain) was “.125 µg/mL”. For the same compound, the MIC [7, 31] was 16 mg/L (≈ 27.6 µM), the MIC [7, 32] was 0.06 mg/L (≈ 0.104 µM) and the MIC [8] was 0.125 mg/L (≈ 0.216 µM). The MIC [9] was 0.06 mg/L (≈ 0.104 µM), the MIC [10] was 0.125 mg/L (≈ 0.216 µM) and the “Minimum Inhibitory Concentration” value ([10]; strain C24) was “.125 µg/mL”. The MIC [11, 33] was 8 mg/L (≈ 13.8 µM), the MIC [11, 34] was 16 mg/L (≈ 27.6 µM) and the MIC [11, 35] was 8 mg/L (≈ 13.8 µM). The MIC [12, 36] was 0.25 mg/L (≈ 0.431 µM), the MIC [12, 37] was 0.125 mg/L (≈ 0.216 µM) and the MIC [13, 38] was 1 mg/L (≈ 1.73 µM). For the same compound, the MIC [13, 39] was 0.25 mg/L (≈ 0.431 µM), the MIC [14] was 0.125 mg/L (≈ 0.216 µM) and the MIC [15, 40] was 16 mg/L (≈ 27.6 µM). The MIC [15, 41] was 8 mg/L (≈ 13.8 µM), the MIC [15, 42] was 4 mg/L (≈ 6.9 µM) and the MIC [15, 43] was > 128 mg/L. The MIC [16, 44] was 16 mg/L (≈ 27.6 µM), the MIC [16, 45] was 64 mg/L (≈ 110 µM) and the MIC [17] was 0.06 mg/L (≈ 0.104 µM). The MIC ([18]; strain 9960) was 16 mg/L (≈ 27.6 µM), the MIC ([18]; strain X66) was > 128 mg/L and the MIC [19] was 0.03 mg/L (≈ 0.0518 µM). The ED50 [20] was 0.16 mg/kg, the ED50 [21] was 0.12 mg/kg and the ED50 [22] was 1 mg/kg. For the same compound, the ED50 [23] was 7.6 mg/kg, the ED50 [24] was 0.21 mg/kg and the “effectiveness in treatment of meningitis” value [25] was “effective in the treatment”. The “levels in the cerebro-spinal fluid” value [26] was “present in effective levels”.
